≈ marks a conversion by molar mass, not a printed value. Some results are limits rather than exact numbers.

One may read the solubility (kinetic) as the concentration staying in solution when a stock, usually in DMSO, is diluted into the medium.

For this data set the following is noted: buffer; pH 7.4; 200.0 µM.
In turn, `Cc1csc(NC(=O)c2cc(C)nc3ccccc23)n1` returned a solubility (kinetic) of 30.7 µg/mL (≈ 108 µM). As to `CCN(CC(=O)Nc1c(F)cccc1F)C(=O)CSc1ccc(F)cc1`, the solubility (kinetic) is more than 57.4 µg/mL. Consider `O=C(NC(=S)Nc1ccccc1O)c1cncc(Br)c1`, for which the kinetic solubility is 9.4 µg/mL (≈ 26.7 µM). Consider `CC1(C)CC(=O)N(c2cc(Cl)cc(Cl)c2)C(=O)C1`, for which the solubility (kinetic) was 11.7 µg/mL (≈ 40.9 µM). The solubility kinetic values of the last two molecules are within 1.5-fold of each other. In the case of `CC12CCC(C(=O)NC3CCCCC3)([C@H](Br)C1=O)C2(C)C` (some centres undefined), the kinetic solubility was more than 53.4 µg/mL. Molecule `CCCc1cc(C(=O)Nc2ccc(Cl)cn2)cs1` came in with a solubility (kinetic) of 0.7 µg/mL (≈ 2.49 µM). In the case of `Fc1ccccc1-c1nc2ncccc2o1`, the solubility (kinetic) amounted to 31 µg/mL (≈ 145 µM). `CC(=O)c1c(C)[nH]c(C(=O)OCc2cccc(C)c2)c1C` returned a kinetic solubility of 4.2 µg/mL (≈ 14.7 µM). With `CCOC(=O)c1csc(NC(C)=O)n1`, the kinetic solubility is more than 32.1 µg/mL. As for `N#Cc1ccc(C(=O)OCC(=O)NC2CCCC2)cc1`, the kinetic solubility was determined as 39 µg/mL (≈ 143 µM). On to `COc1ccc(NC(=O)C2CC2)cc1OC1CCCC1`, for which the solubility (kinetic) stood at 16 µg/mL (≈ 58.1 µM). Turning to `CN1CCN(c2ccc(NC(=O)c3cc4ccccc4o3)cc2)CC1`, the kinetic solubility was 19.6 µg/mL (≈ 58.4 µM). This solubility kinetic and that of the molecule before are within 1.5-fold of each other. For `CC(C)c1ccccc1NC(=S)N(C)C` the value was more than 33.4 µg/mL; for `CN1CCN(C(=S)NC(=O)c2ccc(Br)cc2)CC1`, 51 µg/mL (≈ 149 µM); for `CCCNc1ncnc2onc(C)c12`, 22.5 µg/mL (≈ 117 µM).

As for `Cc1ccc2c(c1)=C(c1ccccc1)N(O)CC(=O)N=2`, the solubility (kinetic) was more than 39.9 µg/mL. On to `COc1ccc(/C=C2\SC(=N)N(c3ccc(F)cc3)C2=O)cc1`, for which the kinetic solubility was less than 0.4 µg/mL. For `CCc1sc(C(=O)Nc2ccc(N3CCOCC3)cc2)cc1C` the value was 8.1 µg/mL (≈ 24.5 µM); for `Cc1cc(NS(=O)(=O)c2ccc(NC(=O)/C=C/c3ccccc3)cc2)nc(C)n1`, more than 61.3 µg/mL.

In the case of `C=CCN=C1S/C(=C\c2ccc(N(C)C)cc2)C(=O)N1CC=C`, the solubility (kinetic) was 5.5 µg/mL (≈ 16.8 µM). For `O=C(CNC1CCCCC1)Nc1cccc(C(F)(F)F)c1` the value was more than 45 µg/mL; for `Cc1cc(C)c(S(=O)(=O)Cc2ccccc2)c(Cl)n1`, more than 44.4 µg/mL. Regarding `COc1ccc(C(=O)OC(C)CN2CCN(C)CC2)cc1.Cl` (centres undefined), the kinetic solubility is more than 49.3 µg/mL. The molecule `Cc1ccc(N=C2NC(=O)/C(=C/c3cccn3C)S2)cc1` displayed a solubility (kinetic) of 2 µg/mL (≈ 6.73 µM).

In turn, `Cc1nc(SC(C)C(=O)NC2CCCCC2C)c2c(C)c(C)sc2n1` (centres undefined) yielded a kinetic solubility of less than 0.3 µg/mL.

`CCOC(=O)c1c(C)n(C)c2c1cc(OC(C)=O)c1ccccc12` yielded a solubility (kinetic) of less than 0.7 µg/mL.

Turning to `CCN(CC)CCC(C)OC(=O)c1ccc(O)cc1O.Cl` (centres undefined), the solubility (kinetic) is more than 47.7 µg/mL. The molecule `COc1cccc(CNC(=O)c2cc(C)nc3ccccc23)c1` showed a solubility (kinetic) of 41.1 µg/mL (≈ 134 µM). `CC(C)(C)C(=O)N1CCn2c1nc1ccccc12` returned a kinetic solubility of 31.9 µg/mL (≈ 131 µM). In turn, `CC(C)(C)C(=O)COc1ccccc1[N+](=O)[O-]` came in with a kinetic solubility of more than 35.6 µg/mL. Regarding `O=C(Cc1cccc2ccccc12)Nc1ccccc1Br`, the solubility (kinetic) is less than 0.7 µg/mL.

`CCc1cc(N2CCOCC2)cc2c1[nH]c1ccccc12` showed a solubility (kinetic) of more than 42.1 µg/mL. In the case of `CCOC(=O)COn1c(=O)c(-c2ccc(F)cc2)[n+]([O-])c2ccccc21`, the kinetic solubility stood at 3.8 µg/mL (≈ 10.6 µM). For `COc1ccc(-c2nc(-c3ccncc3)no2)c(OC)c1` the value was 6 µg/mL (≈ 21.2 µM); for `CCc1ccc(S(=O)(=O)NCc2cccnc2)cc1`, 31.8 µg/mL (≈ 115 µM). `COc1cc(Cl)c(C)cc1NC(=O)CN(C)C1CCS(=O)(=O)C1` (centres undefined) registered a kinetic solubility of more than 54.1 µg/mL.

In the case of `Cn1c(=O)c2c(ncn2CC(=O)Nc2cc(S(=O)(=O)N3CCCCC3)ccc2Cl)n(C)c1=O`, the solubility (kinetic) amounted to 10.5 µg/mL (≈ 21.2 µM).

Turning to `CCOC(=O)C1CCN(c2ccc([N+](=O)[O-])c(C(C)=O)c2)CC1`, the kinetic solubility was more than 48.1 µg/mL.

On to `O=C1CNC(c2ccccc2Cl)c2cc(Br)ccc2N1` (centres undefined), for which the kinetic solubility turned out to be 0.8 µg/mL (≈ 2.28 µM). For `CCSS(=O)(=O)c1cccc2cccnc12` the value was more than 38 µg/mL; for `O=c1cc(-c2ccc([N+](=O)[O-])cc2)c2cc3c(cc2[nH]1)OCCO3`, 0.9 µg/mL (≈ 2.78 µM); for `CN1CCN(c2ncc(CN3C(=O)c4ccccc4C3=O)s2)CC1`, more than 51.4 µg/mL.

In turn, `COc1ccccc1OCCn1c(C)c(C=O)c2ccccc21` came in with a solubility (kinetic) of 1 µg/mL (≈ 3.23 µM).

On to `CCC(C)NC(=O)CN1C(=O)NC2(CCOc3ccccc32)C1=O` (centres undefined), for which the kinetic solubility was more than 49.7 µg/mL.

In turn, `COc1ccc(N(C(=O)C(C)C)S(=O)(=O)c2ccc3ccccc3c2)cc1` returned a kinetic solubility of less than 0.8 µg/mL. In the case of `COc1cc(OC)nc(Oc2ccccc2/C=N/O)n1`, the kinetic solubility was more than 41.3 µg/mL. For the molecule `COCCCNC(=O)c1cc(-c2cccnc2)nc2ccccc12`, the solubility (kinetic) was more than 48.2 µg/mL.

Take `C/C(=N/NC(=O)CNC(=O)c1cccnc1)c1ccccc1`: the kinetic solubility was more than 44.4 µg/mL. `Cc1nc(NC(=O)CSc2nnc(C3CC3)n2N)c(Cl)cc1Cl` had a kinetic solubility of more than 56 µg/mL. For `CC(=O)NCCc1nc2cc(NC(=O)c3ccccc3Cl)ccc2n1C` the value was more than 55.6 µg/mL; for `O=C(Cc1ccc(F)cc1)NCCc1cnc[nH]1`, more than 37.1 µg/mL. The molecule `N#CC1=C(N)Oc2cc(N)ccc2C1c1ccccc1F` (centres undefined) returned a kinetic solubility of 4.9 µg/mL (≈ 17.4 µM). Molecule `COc1ccc(C(=O)Nc2cccc3c2CCCC3)cc1OC` had a kinetic solubility of 1 µg/mL (≈ 3.21 µM). Take `COCCCN(CC(=O)O)S(=O)(=O)c1cccc(Cl)c1`: the kinetic solubility was more than 48.3 µg/mL. For the molecule `CCOc1ccc(S(=O)(=O)n2cnc3ccccc32)cc1`, the kinetic solubility came out at 42.4 µg/mL (≈ 140 µM). In the case of `O=C(c1ccccc1)N1CCN(CCc2ccccc2)CC1`, the kinetic solubility amounted to 40.7 µg/mL (≈ 138 µM). This solubility kinetic and that of the molecule before are within 1.5-fold of each other.

`CCc1ccc(NC(=O)N2CCCCCC2)cc1` registered a kinetic solubility of 31.9 µg/mL (≈ 129 µM). In turn, `COc1cc(OC)cc(C(=O)NC(C(=O)N2CCC2)C(C)C)c1` (centres undefined) gave a solubility (kinetic) of more than 48.1 µg/mL. For `O=c1c2ccccc2[nH]c(=S)n1Cc1ccc2c(c1)OCO2` the value was less than 0.3 µg/mL. `CC(CNC(=O)COC(=O)c1ccco1)c1ccccc1` (centres undefined) had a kinetic solubility of more than 43.1 µg/mL. For the molecule `COc1ccc(S(=O)(=O)Nc2noc3ccccc23)cc1`, the kinetic solubility stood at 42.1 µg/mL (≈ 138 µM). For `O=C(Cc1c(F)cccc1Cl)NCCN1CCOCC1` the value was more than 45.1 µg/mL; for `Cc1sc2ncnc(SCC(=O)Nc3ccc(S(=O)(=O)N4CCOCC4)cc3)c2c1C`, 5.4 µg/mL (≈ 11.3 µM); for `Cc1cccc(NC(=O)C(C)SCc2ccccc2)c1` (centres undefined), 27.9 µg/mL (≈ 97.8 µM). For `COc1ccccc1CNC(=O)Cc1c[nH]c2ccccc12` the value was more than 44.2 µg/mL. Turning to `NC(=O)c1ccccc1OCc1cccc2ccccc12`, the kinetic solubility is 2.9 µg/mL (≈ 10.5 µM). For `CC(C)(C)c1ccc(C(=O)O/N=C(\N)c2ccccc2)cc1`, the kinetic solubility came out at 1.1 µg/mL (≈ 3.71 µM). `Cc1ccc(-c2nc(-c3cccnc3)sc2CC(=O)O)cc1` had a kinetic solubility of 42.4 µg/mL (≈ 137 µM). This solubility kinetic lies about 39-fold higher than the previous one.

The molecule `Oc1ccc(Cl)cc1C=Nc1ccc2c3c(cccc13)CC2` yielded a kinetic solubility of more than 46.2 µg/mL. Consider `COc1ccccc1OCC(=O)NC1CCCc2ccccc21` (centres undefined), for which the kinetic solubility worked out at 41.6 µg/mL (≈ 134 µM).

In turn, `Cl.N=c1sccn1Cc1ccccc1F` registered a kinetic solubility of more than 36.7 µg/mL. In turn, `CC(C)NC(=O)/C=C/C(=O)O` gave a kinetic solubility of 22.3 µg/mL (≈ 142 µM). Molecule `COc1ccc(NC(=O)c2c(F)cccc2Cl)cc1S(=O)(=O)N1CCOCC1` yielded a solubility (kinetic) of more than 64.3 µg/mL.

The molecule `CC1CN(C(=O)COC(=O)c2cc(Cl)ccc2Cl)CC(C)O1` (centres undefined) yielded a solubility (kinetic) of more than 51.9 µg/mL.

`CC1CN(C(=O)c2cccc(Oc3ccccc3)c2)CC(C)O1` (centres undefined) yielded a solubility (kinetic) of more than 46.7 µg/mL. The molecule `COC(=O)c1cn(C(=O)c2cc(OC)cc(OC)c2)c2ccccc12` gave a solubility (kinetic) of 3.4 µg/mL (≈ 10 µM). In turn, `CN(C1CCCCC1)S(=O)(=O)c1cccc2nsnc12` came in with a kinetic solubility of more than 46.7 µg/mL. `CC(C)(C)Nc1nc2ccc([N+](=O)[O-])cc2o1` showed a solubility (kinetic) of 31.9 µg/mL (≈ 136 µM). In the case of `Cc1ccc(C(=O)OCC(=O)N(C)c2ccccc2)c(C)c1`, the solubility (kinetic) was more than 44.6 µg/mL. On to `O=C(Nc1ccc2c(c1)OCO2)C1CC1`, for which the kinetic solubility was more than 30.8 µg/mL. Molecule `COc1cc(C(=O)OCC(C)=O)cc(NC(=O)c2ccco2)c1OC` returned a solubility (kinetic) of 2.4 µg/mL (≈ 6.91 µM).

`Cc1nc(NC(=O)c2ccccc2)sc1C` returned a solubility (kinetic) of 29.6 µg/mL (≈ 127 µM).

For the molecule `O=C(CSCc1ccco1)N1CCc2ccccc21`, the kinetic solubility came to 36.9 µg/mL (≈ 135 µM). For the molecule `CCNc1ccc(C(=O)OCC(=O)N2CCCC2)cc1[N+](=O)[O-]`, the kinetic solubility came to 43.9 µg/mL (≈ 137 µM). This solubility kinetic and that of the molecule before are within 1.5-fold of each other. `CC(C)NC(=O)C1=NN(c2ccccc2)C(=O)CC1` showed a kinetic solubility of more than 38.9 µg/mL. For `O=C1Nc2ccccc2O/C1=C\c1ccccc1Br` the value was 3.3 µg/mL (≈ 10.4 µM); for `COc1ccc(/C=C2\SC(=Nc3ccccc3OC)NC2=O)cc1`, 1.7 µg/mL (≈ 4.99 µM); for `COc1ccc(Cl)cc1C(=O)NCCCSc1ccccc1`, 7.8 µg/mL (≈ 23.2 µM). For `O=C1c2ccccc2C(=O)N1CCOc1ccc(F)cc1` the value was 4 µg/mL (≈ 14 µM); for `Cc1cc(=O)oc2cc(NC(=O)c3cccc(S(C)(=O)=O)c3)ccc12`, 3.5 µg/mL (≈ 9.79 µM); for `CCOC(=O)c1ccc(NC(=O)C2CC(O)CN2S(=O)(=O)c2ccc(C)cc2)cc1` (centres undefined), more than 64.9 µg/mL. For `Cc1onc(-c2ccccc2)c1C(=O)NCc1ccccc1F` the value was 6.5 µg/mL (≈ 20.9 µM); for `COc1ccc(NC(=S)NC2CCCC2)c(OC)c1`, more than 42.1 µg/mL; for `O=C(Nc1ccccc1Cl)NC1(C(=O)N2CCC(O)CC2)CCCCC1`, more than 57 µg/mL. `Clc1ccc(CN2CCN(c3ncccn3)CC2)cc1Cl` registered a solubility (kinetic) of 13 µg/mL (≈ 40.2 µM).

The molecule `CCCc1nc2c(sc3nc4c(cc32)COC(C)(C)C4)c(=O)o1` gave a solubility (kinetic) of 24.1 µg/mL (≈ 72.9 µM). For `COc1cc(/C=C(\NC(C)=O)C(=O)N2CCCCC2)ccc1OC(C)=O` the value was 47.7 µg/mL (≈ 132 µM). On to `Cc1cccc(C)c1NC(=S)N(CCN(C)C)C(C)c1ccccn1` (centres undefined), for which the solubility (kinetic) is more than 53.5 µg/mL. With `O=C1CN(C(=O)COC(=O)Cc2ccccc2F)c2ccccc2N1`, the solubility (kinetic) is more than 51.3 µg/mL.

Turning to `Cc1ccc(C(=O)OC(C)CN2CCN(C)CC2)cc1.Cl` (centres undefined), the kinetic solubility turned out to be 40.8 µg/mL. Regarding `Brc1ccc(-c2ncc3ccccn23)cc1`, the solubility (kinetic) was determined as 29.3 µg/mL (≈ 107 µM). In the case of `CCOC(=O)c1ccc(Nc2nc(C)cc(C)n2)cc1`, the solubility (kinetic) turned out to be 0.2 µg/mL (≈ 0.737 µM). `COc1ccc(NC(=O)c2cc(-c3ccccc3Cl)on2)cc1`: the kinetic solubility is less than 0.4 µg/mL. For `COC(=O)Cc1c(O)ccn(CCc2ccc(OC)c(OC)c2)c1=O` the value was more than 52.1 µg/mL.

The values above are taken from PubChem BioAssay AID1996.
